Assay [1] addresses neuraminidase of seasonal influenza A(H1N1) H275Y variant virus isolates (Influenza A virus, UniProt A8C8J7, H275Y). It is filed as biochemical.
In assay [2] the target is neuraminidase of A/Florida/21/2008, A (H1N1) Seasonal, H275Y (Influenza A virus, UniProt G3LYQ1, H275Y). The assay is classed as biochemical.
For assay [3], the target named is neuraminidase of B/Memphis/20/1996, B Seasonal, R152K (Influenza B virus, UniProt R4KWM8, R150K). The assay is classed as biochemical.
Assay [4] deals with neuraminidase of A/Washington/01/2007, A (H3N2) Seasonal, WT (Influenza A virus, UniProt A7UPN3). Nature of the assay: biochemical.
Assay [5] addresses neuraminidase of A/Texas/48/2009, H1N1 Pandemic, H275Y (Influenza A virus, UniProt C6KP13, H275Y). It is filed as biochemical, 2009 pandemic H1N1 influenza virus.
Assay [6] concerns the target neuraminidase of B/Memphis/20/1996, B Seasonal, WT (Influenza B virus, UniProt C7FPS7). It is filed as biochemical.
Assay [7] addresses neuraminidase of A/California/07/2009, H1N1 Pandemic, WT (Influenza A virus (A/California/07/2009(H1N1)), UniProt C7FH46). The assay is classed as biochemical, 2009 pandemic H1N1 influenza virus.
The target in assay [8] is neuraminidase of A/Texas/12/2007, A (H3N2) Seasonal, E119V (Influenza A virus, UniProt D1FVK3, I119V). Nature of the assay: biochemical.
Assay [9] has as its target neuraminidase of A/Washington/10/2008, A (H1N1) Seasonal, WT (Influenza A virus, UniProt G3LYQ1). The assay is classed as biochemical.
Assay [10] concerns the target neuraminidase of A/Thailand/1035/2008 (H1N1), H275Y and D151D/G (Influenza A virus, UniProt C7FPR4). The assay is classed as biochemical.
In assay [11] the target is neuraminidase of 2009 pandemic H1N1 H275Y variant virus isolates (Influenza A virus, UniProt C3W5S3, H275Y). The assay is classed as biochemical, 2009 pandemic H1N1 influenza virus.
Assay [12] addresses neuraminidase of A/Ontario/RV0442/2009, A(H3N2), D151V and V50M (Influenza A virus, UniProt X2GPU4, D151V/V50M). It is filed as biochemical.
Assay [13] addresses neuraminidase of B/Texas/38/2008, D197E (Influenza B virus, UniProt C7F996). Nature of the assay: biochemical.

Each structure is given as a SMILES string. Read-outs that look alike come from different tables or passages of the source.

The term IC50 denotes the point on the concentration scale where inhibition reaches its midpoint.

`CCC(CC)[C@H](NC(C)=O)[C@@H]1[C@H](O)[C@@H](C(=O)O)C[C@H]1N=C(N)N` [Peramivir, peramivir]: the “fold, mean IC50 among H275Y variants over H275 wildtype viruses” value in assay [1] is listed as roughly 300 fold. Also, the IC50 was 30.6 ± 66.1 nM in assay [1] (read-out: IC50 Mean (±SD)); 12.9 nM in [1] (read-out: IC50 Median); 2.46 to 511 nM in [1] (read-out: IC50 Range); 11.3 nM in [2] (read-out: Mean IC50 ± SD); 52.8 nM in [3] (read-out: Mean IC50 ± SD); 10.1 nM in assay [5] (read-out: Mean IC50 ± SD). In addition, the IC50 in assay [8] (read-out: Mean IC50 ± SD) is 0.14 nM; in assay [10] (read-out: IC50) it was 295 nM; in assay [11] (read-out: IC50 Mean (±SD)), 10.4 ± 1.37 nM; in assay [11] (read-out: IC50 Median), 10.3 nM; in assay [11] (read-out: IC50 Range), 8.1 to 12.9 nM; in [12], 7.48 nM. The “Fold Difference (IC50 of mutant/IC50 of wildtype virus)” value in assay [2] was 11.27±1.36 (134); in assay [3], 52.80±3.51 (176); in [4], 0.12±0.02 (1); in assay [5], 10.06±0.01 (164); in assay [6], 0.31±0.06 (1); in assay [7] it was 0.06±0.02 (1). Also, the “Fold Difference (IC50 of mutant/IC50 of wildtype virus)” value was 0.14±0.02 (1) in assay [8] and 0.09±0.02 (1) in assay [9].

As for `CC(=O)N[C@H]1[C@H]([C@H](O)[C@H](O)CO)OC(C(=O)O)=C[C@@H]1N=C(N)N` [Zanamivir, zanamivir], the IC50 in [13] came to 10.3 nM; in assay [8] it was 0.51 nM; in assay [10], 20.6 nM.

(Values after paper PMC3185571 (Viruses, 2010).)
